# Data: patent publication US20070196902A1, “Method of detecting AZT resistance in HIV” (University of Pittsburgh, priority 2006, published 2007)
# Where two headings read alike, the source gives them in different places.
# What was measured:
# [1] = test system: Wild-type HIVLAI; assay: Drug susceptibility assay in P4/R5 cells, recombinant virus; assay type: cell-based, HIV-1
# Procedure: (§1) Drug susceptibility assays. NRTI susceptibility was determined in P4/R5 cells as described previously (Parikh, U. M., et al. 2005. Antimicrob. Agents Chemother. 49:1139-44). Briefly, threefold dilutions of inhibitor were added to P4/R5 cells in triplicate and cells were infected with an amount of virus that produced 100 relative units of light (RLU) in no drug, virus control wells. After 48 hours, the cells were lysed (Gal-Screen; Tropix/Applied Biosystems, Foster City, Calif.) and the RLU was measured using a ThermoLabSystems luminometer (Waltham, Mass.). The IC50 and fold-resistance were calculated as described above. IC50 values from at least three independent experiments were log10 transformed and compared for statistically significant differences using the two-sample Student's t test.
# (§2) Construction of mutant recombinant HIV-1. Mutant recombinant plasmid clones of virus were generated by oligonucleotide site-directed mutagenesis as described previously (Shi, C., and J. W. Mellors. 1997. A recombinant retroviral system for rapid […] analysis of human immunodeficiency virus type 1 susceptibility to reverse transcriptase inhibitors. Antimicrob. Agents Chemother. 41:2781-5), using the p6HRT-MO plasmid. p6HRT-MO contains the entire RT and protease coding sequence as previously described (Le Grice, S. F., and F. Gruninger-Leitch. 1990. Rapid purification of homodimer and heterodimer HIV-1 reverse transcriptase by metal chelate affinity chromatography. Eur. J. Biochem. 187:307-14) and four silent restriction sites (Xma I, Mlu I, Xba I, and NgoM IV from the 5′ to 3′ end of RT at codons 14, 358, 490 and 554, respectively). After site-directed mutagenesis (QIAamp kit, QIAGEN, Valencia, Calif.), the mutated RT was ligated into pxxHIV-1LAI MO that contains the entire genome of HIV-1LAI and the same silent restriction sites as p6HRT-MO. Infectious virus was generated by electroporating the mutated xxHIV-1LAI MO plasmid into MT-2 cells as described above. All mutations in recombinant viruses were confirmed by full-length sequencing of the entire RT coding region.
# [2] = test system: HIVLAI RT D67N/K70R/A371V/Q509L; assay: Drug susceptibility assay in P4/R5 cells, site-directed mutant; assay type: cell-based, HIV-1; details: for Fold-Resistance: D67N/K70R/A371V/Q509L compared to wild-type; for IC50: D67N/K70R/A371V/Q509L, mean ± SD
# Procedure: as §1, §2
# [3] = test system: HIVLAI RT D67N/K70R/T215F/A371V/Q509L; assay: as above; assay type: cell-based, HIV-1; details: for Fold-Resistance: D67N/K70R/T215F/A371V/Q509L compared to wild-type; for cross-resistance compared with viruses without A371V/Q509L: HIV-1 containing D67N/K70R/T215F/A371V/Q509L; for IC50: D67N/K70R/T215F/A371V/Q509L, mean ± SD
# Procedure: as §1, §2
# [4] = test system: HIVLAI RT D67N/K70R/T215F; assay: as above; assay type: cell-based, HIV-1; details: for Fold-Resistance: D67N/K70R/T215F compared to wild-type; for IC50: D67N/K70R/T215F, mean ± SD
# Procedure: as §1, §2
# [5] = test system: HIVLAI RT D67N/K70R; assay: as above; assay type: cell-based, HIV-1; details: for Fold-Resistance: D67N/K70R compared to wild-type; for IC50: D67N/K70R, mean ± SD
# Procedure: as §1, §2
# [6] = test system: HIV-1 RT mutants with A371V and/or Q509L, alone or in combination with TAMs; assay: Drug susceptibility of site-directed mutants, comparisons between mutants with and without A371V/Q509L; assay type: cell-based; details: D67N/K70R/A371V/Q509L and D67N/K70R/T215F/A371V/Q509L
# [7] = test system: HIV-1 RT mutations D549N and H539N; details: cited from earlier work
# [8] = test system: HIV-1 RT D549N; details: D549N mutation; cited from earlier work
# [9] = test system: HIV-1 RT H539N; details: H539N mutation; cited from earlier work
# [10] = test system: HIV-1 RT D549N with TAMs D67N, K70R, T215Y and K219Q; details: D549N present with TAMs D67N; cited from earlier work
# [11] = Human immunodeficiency virus 1, P4/R5
SMILES,"IC50 [1, 11] [µM]",Fold-Resistance [2] [fold],"IC50 [2, 11] [µM]",Fold-Resistance [3] [fold],cross-resistance compared with viruses without A371V/Q509L [3],"IC50 [3, 11] [µM]",Fold-Resistance [4] [fold],"IC50 [4, 11] [µM]",Fold-Resistance [5] [fold],"IC50 [5, 11] [µM]",cross-resistance of viruses with A371V and Q509L in combination with TAMs compared with those with only TAMs [6],effect of the mutations on susceptibility [7],increase in resistance (reduced susceptibility) [8],increase in resistance (reduced susceptibility) [9] [fold],increase in resistance [10] [fold],"IC50 ([1]; Wild-type HIVLAI RT, mean ± SD, at least 3 independent experiments, read-out: IC50) [µM]",IC50 [2] [µM],IC50 [3] [µM],IC50 [4] [µM],IC50 [5] [µM]
Nc1nc(NC2CC2)c2ncn([C@H]3C=C[C@@H](CO)C3)c2n1 [abacavir],6.4 ± 0.5,2.0,13 ± 2.5,3.0,greater cross-resistance,19 ± 4.5,2.4,15 ± 1.5,1.2,7.9 ± 0.4,Statistically significant increases in cross-resistance,–,–,–,–,–,–,–,–,–
O=c1[nH]cnc2c1ncn2[C@H]1CC[C@@H](CO)O1 [didanosine],4.2 ± 0.9,1.2,4.9 ± 0.9,1.6,–,6.6 ± 0.4,1.6,6.8 ± 0.3,1.2,5 ± 0.9,–,no effect,–,–,–,–,–,–,–,–
O=C1Nc2ccc(Cl)cc2[C@@](C#CC2CC2)(C(F)(F)F)O1 [efavirenz],–,–,–,–,–,–,–,–,–,–,–,no effect,–,–,–,–,–,–,–,–
Nc1ccn([C@@H]2CS[C@H](CO)O2)c(=O)n1 [lamivudine],0.5 ± 0.1,5.2,2.7 ± 1.4,15,–,7.5 ± 1.8,7.0,3.8 ± 0.59,1.9,1 ± 0.3,–,–,–,–,–,–,–,–,–,–
Cc1cn([C@H]2C=C[C@@H](CO)O2)c(=O)[nH]c1=O [stavudine],7.2 ± 0.6,1.3,9.6 ± 2.9,2.0,–,14 ± 4.4,2.4,17 ± 4.6,1.4,10 ± 3.1,–,–,"2,4 fold",10,12.5,–,–,–,–,–
C[C@H](Cn1cnc2c(N)ncnc21)OCP(=O)(O)O [tenofovir],–,2.2,–,2.7,greater cross-resistance,–,1.5,–,1.5,–,trend toward decreased susceptibility,–,–,–,–,3.3 ± 0.9,7.3 ± 1.3,9 ± 3.5,4.9 ± 0.7,4.9 ± 1.5
